“Also recorded” adds a separate entry of the source.
Assays:
PMA-stimulated PMNs = test: Nuclear decondensation (nuclear area) assay; format: cell-based, human; conditions: CRISPP 1 nM, SCR 1 nM, Sivelestat 200 nM; PMA 20 nM, 2 hours; vs PMA alone
Description: Using techniques modified from Papayannopoulos et al., J Cell Biol, 2010, 191: 677-691, nuclear area assays were used for PMA-stimulated PMNs as a surrogate for NET formation. PMNs were stimulated with PMA (20 nM) for 2 hours and then visualized via live cell imaging with a cell permeable DNA dye. Images from 5 randomly selected high power fields were captured and the nuclear area of all PMNs on each visual field was quantitated using IMAGEJ software. Nuclear areas were compared for PMNs stimulated with PMA with PMNs pre-incubated with CRISPP (1 nM), SCR (1 nM), or the NE inhibitor Sivelestat (200 nM). […] Next, immunocytochemical experiments designed to see whether CRISPP is taken up by human PMNs were performed. The CRISPP-F and SCR-F peptides and FLAG-tag specific primary antibodies were used to assess cellular location. […] CRISPP can inhibit nuclear chromatin decondensation, which is consistent with the selective inhibition of NET formation by CRISPP and nNIF. This process may involve inhibition of NE activity.
PMNs were isolated and resuspended to 2×10^6 cells/mL in M-199 media. […] 5 randomly selected high power visual fields per sample were captured via confocal microscopy and analyzed for nuclear area using the cell-permeable, fluorescent DNA dye SYTO Green. The nuclear pixel areas of >100 individual cells per high power field were determined using IMAGE-J software (NIH).

[1] = test system: human PMNs (killing of a pathogenic strain of E. coli); test: Bacterial killing of E. coli by human PMNs; format: cell-based; conditions: LPS-stimulated (100 ng/mL) PMNs; pretreatment 1 nM
Description: Total, phagocytotic, and NET-mediated extracellular bacterial killing of a pathogenic strain of E. coli by human PMNs±LPS stimulation (100 ng/mL) was assessed, and the results are summarized in FIG. 9. PMNs were also pretreated with CRISPP (1 nM), or a scrambled control peptide control (1 nM). Phagocytotic killing was inhibited with cytochalasin B and D pretreatment (10 μM). NET-mediated killing was inhibited using DNase treatment to dismantle NETs prior to addition of the bacteria.
Bacterial killing efficiency of primary human PMNs was determined as previously described in Yost et al., Blood, 2009, 113: 6419-6427. PMNs were incubated for 30 minutes at 37° C. in 5% CO2/95% air alone or with the phagocytosis inhibitors cytochalasin B and D (10 μM). The leukocytes were then stimulated with LPS (100 ng/mL), placed in poly-L-lysine-coated wells of a 24-well tissue culture plate, and incubated at 37° C. for 1 hour to induce cellular activation and formation of NETs. To inhibit NET-mediated bacterial killing, we incubated selected wells with DNase (40 U/mL) for 15 minutes prior to addition of bacteria. E. coli (1 cfu/100 PMN) were added to the PMNs, followed by continued incubation for 2 hours. The PMNs were then permeabilized with 0.1% Triton-X 100 for 10 minutes and each well was scraped to free all cells. Serial dilutions were performed and bacterial cultures were grown on 5% sheep blood agar plates (HARDY DIAGNOSTICS). After a 24-hour incubation, bacterial counts were determined. Total, phagocytotic, and fractional NET-mediated bacterial killing were determined as described above.

[2] = test system: C57BL6 mice, intraperitoneal injection of LPS; test: Survival after intraperitoneal LPS; format: in vivo, mouse; conditions: LPS 20 mg/kg IP; 10 mcg/kg/dose IP, 1 hour prior and 6 hours after; vs LPS+scrambled peptide, p=0.02
Description: FIG. 10A is a graph tracking survival of C57BL6 mice in various treatment arms following intraperitoneal injection of LPS (20 mg/kg). CRISPP-treated mice (10 mcg/kg/dose) received 2 doses intraperitoneally; one given 1 hour prior to infection and one dose given 6 hours after infection. The same dose, delivery route, and schedule were followed for the scrambled peptide control mice. Six mice were assessed in both groups.
Survival of outbred Swiss mice was tracked in various treatment arms following intraperitoneal injection of either LPS (20 mg/kg) or E. coli (4×10^7 bacteria), as shown in FIGS. 10A and 10B. […] Six mice were assessed in both groups: LPS+CRISPP and LPS+scrambled control peptide. […] Ten mice were assessed in each group: no treatment, E. coli+CRISPP, and E. coli+scrambled control peptide. […] Referring to FIG. 11, CRISPP was also evaluated in a murine model of polymicrobial infection caused by cecal ligation and puncture (CL/P). […] Ten mice were assessed in each of the CL/P groups. […]
Animals were treated with CRISPP (10 mg/kg), nNIF (10 mg/kg), or SCR (10 mg/kg) by i.p. injection 1 hour prior to and 6 hours after infection (E. coli, 4.5×10^7 cfu/mouse, i.p. injection) or stimulation (LPS, 25 mg/kg, i.p. injection). […] Survival was assessed over 6 days at 6 hour to 12 hour intervals.

“Cancer-Associated SCM-Recognition, Immune Defense Suppression, and Serine Protease Protection Peptide [CRISPP, nNIF-related peptide (nNRP)]” was tested, and the “Nuclear area of PMA-stimulated PMNs” value (PMA-stimulated PMNs) was “significant decrease in nuclear area”, the “NET-mediated extracellular bacterial killing of E. coli” value [1] was “significantly decreased” and the “Phagocytotic bacterial killing of E. coli” value [1] was “did not alter; also recorded: not different”. For the same substance, the “Total bacterial killing of E. coli” value [1] was “significantly decreased” and the Survival [2] was “statistically greater”.
